Measurements: PubChem BioAssay (NCI)
“And” between values parts separate entries of the source, which are not always exact repeats. Identical values can stand only once.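 Assay format: 96-well plates, 48-hour exposure. Abbreviation: GI50, concentration required for 50% inhibition of growth. TGI is the concentration that stops growth completely.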 Where a SMILES comes first, the peptide text is derived from it. The star is where a group is joined. Fmoc = O=C(OCC1c2ccccc2-c2ccccc21)*; OtBu = CC(C)(C)O*

Experiments:
Assay in all cases: NCI anticancer screen, dose series, 48 h
[1] = test system: UO-31 renal
[2] = test system: K-562 leukemia
[3] = test system: SW-620 colon
[4] = test system: OVCAR-3 ovarian
[5] = test system: OVCAR-4 ovarian
[6] = test system: M14 melanoma
[7] = test system: UACC-257 melanoma
[8] = test system: LOX IMVI melanoma
[9] = test system: EKVX NSCLC
[10] = test system: NCI/ADR-RES ovarian
[11] = test system: TK-10 renal
[12] = test system: MCF7 breast

SMILES	TGI [1]	TGI [2]	TGI [3]	TGI [4]	TGI [5]	TGI [6]	TGI [7]	TGI [8]	TGI [9]	TGI [10]	TGI [11]	TGI [12]	GI50 [9]	GI50 [10]	GI50 [12]
Cc1cc(NC2=CC(=O)C(=O)c3ccccc32)no1	20.4 µM	20.1 µM	14.6 µM	14.1 µM	21.4 µM	28.3 µM	16.7 µM	4.06 µM	31.5 µM	15.6 µM	63.4 µM	7.66 µM	–	–	–
CN(C)C(C1=C(O)C(c2ccccc2)N(c2ccccc2)C1=O)N1CCOCC1 (stereo not given)	> 10 µM	> 10 µM	> 10 µM	> 10 µM	> 10 µM	> 10 µM	> 10 µM	> 10 µM	> 10 µM	> 10 µM	> 10 µM	> 10 µM	–	–	–
Cc1ccc(CC(Cc2ccccc2C)C(=O)O)c(C(=O)O)c1 (stereo not given)	> 100 µM	> 100 µM	> 100 µM	> 100 µM	> 100 µM	> 100 µM	> 100 µM	> 100 µM	> 100 µM	> 100 µM	> 100 µM	> 100 µM	–	–	–
COc1cc2c(cc1OC)OC(c1c(OC)ccc(OC)c1O)CC2 (stereo not given)	> 100 µM	> 100 µM	> 100 µM	> 100 µM	> 100 µM	> 100 µM	> 100 µM	> 100 µM	> 100 µM	> 100 µM	> 100 µM	> 100 µM	–	–	–
N#CC(c1ccccc1)N(CCCCCCN(C(=O)c1ccccc1)C(C#N)c1ccccc1)C(=O)c1ccccc1 (stereo not given)	46.1 µM	> 100 µM	> 100 µM	> 100 µM	91.2 µM	> 100 µM	63.9 µM	> 100 µM	> 100 µM	51.2 µM	62.6 µM	> 100 µM	–	–	–
CSc1ncnc2c1ncn2CCC(=O)O	> 100 µM	> 100 µM	> 100 µM	> 100 µM	> 100 µM	> 100 µM	> 100 µM	> 100 µM	> 100 µM	> 100 µM	> 100 µM	> 100 µM	–	–	–
N#CC12C(=O)N3C(=NC(c4ccco4)NC3c3ccco3)C1(C#N)C(c1ccco1)NC1=C2CCCC1 (stereo not given)	> 100 µM	> 100 µM	> 100 µM	–	> 100 µM	> 100 µM	> 100 µM	> 100 µM	> 100 µM	> 100 µM	> 100 µM	> 100 µM	–	–	–
CN=C1Nc2ccccc2C(=O)N2CSCC12 (stereo not given)	> 100 µM	> 100 µM	> 100 µM	> 100 µM	> 100 µM	> 100 µM	> 100 µM	> 100 µM	> 100 µM	> 100 µM	> 100 µM	> 100 µM	–	–	–
COc1cc(OC)cc(OCc2nc3cc(C(F)(F)F)ccc3nc2-c2ccccc2)c1	> 100 µM	> 100 µM	> 100 µM	> 100 µM	> 100 µM	> 100 µM	> 100 µM	> 100 µM	> 100 µM	> 100 µM	> 100 µM	> 100 µM	–	–	–
CCOc1cc(C2CC(c3ccc(NS(=O)(=O)c4cc([N+](=O)[O-])ccc4C)cc3)=NN2S(=O)(=O)c2cc([N+](=O)[O-])ccc2C)ccc1O (stereo not given)	> 100 µM	> 100 µM	> 100 µM	71.5 µM	> 100 µM	> 100 µM	> 100 µM	> 100 µM	82.2 µM	> 100 µM	> 100 µM	> 100 µM	–	–	–
CC(C)C(NC(=O)OCC1c2ccccc2-c2ccccc21)C(=O)NC(CCC(=O)OC(C)(C)C)C(=O)OC(C)(C)C (stereo not given) (Fmoc-Val-Glu(OtBu)-OtBu; configuration not given here)	> 100 µM	> 100 µM	> 100 µM	> 100 µM	> 100 µM	> 100 µM	> 100 µM	> 100 µM	> 100 µM	> 100 µM	> 100 µM	> 100 µM	–	–	–
C=CCN(c1cc(OC)c(NC(C)=O)cc1[N+](=O)[O-])S(C)(=O)=O	> 100 µM	> 100 µM	> 100 µM	> 100 µM	> 100 µM	> 100 µM	> 100 µM	> 100 µM	> 100 µM	> 100 µM	> 100 µM	> 100 µM	–	–	–
O=C(Nc1ccccc1)c1cc(S(=O)(=O)Nc2n[nH]c(=O)n2-c2ccccc2)c(S)cc1Cl	> 100 µM	> 100 µM	> 100 µM	> 100 µM	> 100 µM	> 100 µM	> 100 µM	> 100 µM	> 100 µM	> 100 µM	> 100 µM	> 100 µM	–	–	–
Cc1cc(S(=O)(=O)NC2=NCc3nc4ccccc4n32)c(S)cc1Cl	63.6 µM	> 100 µM	> 100 µM	40.3 µM	83.2 µM	63 µM	62.2 µM	35 µM	86 µM	54.6 µM	> 100 µM	70.1 µM	–	–	–
O=C1/C(=C/c2cccc(Cl)c2)CCCc2ccccc21	30.1 µM	34 µM	33.9 µM	55.8 µM	31.4 µM	29.9 µM	46.5 µM	32.8 µM	35.9 µM	35.9 µM	34.9 µM	27.4 µM	–	–	–
CC1=NN(c2nc(N)nc(CN3CCOCC3)n2)C(C)(C)C1	33.3 µM	> 100 µM	> 100 µM	> 100 µM	45.7 µM	> 100 µM	> 100 µM	28.5 µM	> 100 µM	> 100 µM	> 100 µM	> 100 µM	–	–	–
COc1ccc(S(=O)(=O)N2C(=O)CCC2C(=O)NC(N)=O)cc1 (stereo not given)	> 100 µM	> 100 µM	> 100 µM	> 100 µM	> 100 µM	> 100 µM	> 100 µM	> 100 µM	> 100 µM	> 100 µM	> 100 µM	> 100 µM	–	–	–
COc1ccc2c3c1OC1C(F)C=CC4(O)C(C2)NCCC314 (stereo not given)	4.62 µM	> 100 µM	7.71 µM	7.07 µM	7.05 µM	4.93 µM	24.1 µM	10.4 µM	11 µM	38.3 µM	12.8 µM	5.25 µM	–	–	–
NC1N=C(c2ccc(Cl)cc2)C2=C(N1)c1ccccc1CC2 (stereo not given)	> 88.7 µM	> 26.1 µM	> 78.4 µM	> 100 µM	88.2 µM	> 59.3 µM	> 100 µM	> 50.9 µM	> 100 µM	> 100 µM	> 100 µM	> 46.8 µM	–	–	–
Cc1ccc(CC2(C(=O)O)Cc3ccc(C)cc3C2)cc1 (stereo not given)	> 100 µM	> 100 µM	> 100 µM	> 100 µM	> 100 µM	> 100 µM	> 100 µM	> 100 µM	> 100 µM	> 100 µM	> 100 µM	> 100 µM	–	–	–
CCN1CCC(O)(c2ccc(Oc3ccc(Cl)cc3)cc2)C(C(=O)c2ccc(Oc3ccc(Cl)cc3)cc2)C1 (stereo not given)	28.1 µM	> 100 µM	50.9 µM	–	32.7 µM	28.3 µM	27.1 µM	16.5 µM	34.5 µM	39.9 µM	23 µM	19.9 µM	–	–	–
CCOCCOCCOCc1nc(C#N)c(N)o1	> 100 µM	> 100 µM	> 100 µM	> 100 µM	> 100 µM	> 100 µM	> 100 µM	> 100 µM	> 100 µM	> 100 µM	> 100 µM	> 100 µM	–	–	–
N#Cc1ccc(C(O)C(F)(F)c2nc3ccccc3o2)cc1 (stereo not given)	> 100 µM	45.7 µM	> 100 µM	–	> 100 µM	> 100 µM	> 100 µM	> 100 µM	> 100 µM	> 100 µM	> 100 µM	> 100 µM	–	–	–
CCOC1CN=C(Nc2cccc3ccccc23)S1 (stereo not given)	–	> 10 µM	> 10 µM	> 10 µM	> 10 µM	> 10 µM	> 10 µM	> 10 µM	> 10 µM	> 10 µM	> 10 µM	> 10 µM	–	–	–
CC1OC(OC2C(OC(=O)[C@]34CCC(C)(C)C[C@H]3C3=CC[C@@H]5[C@@]6(C)CC[C@H](OC7OC(C(=O)O)C(O)C(O)C7O)C(C)(C)[C@@H]6CC[C@@]5(C)[C@]3(C)C[C@H]4O)OCC(O)C2O)C(O)C(O)C1OC1OCC(O)C(O)C1O (stereo not given in full)	24.1 µM and 20.1 µM	35.4 µM and 36.3 µM	32.8 µM and 27.7 µM	32.2 µM and 29.1 µM	31.7 µM	28.1 µM and 21.6 µM	32.6 µM and 34.1 µM	30.9 µM and 29.5 µM	21.3 µM and 13 µM	27.1 µM and 19 µM	–	29.4 µM and 17.8 µM	7.47 µM and 3.7 µM	13 µM and 5.11 µM	14.4 µM and 5.24 µM
N#C/C(=C\c1ccc(F)cc1)c1nc(-c2cc3ccccc3oc2=O)cs1	97.9 µM	> 100 µM	> 100 µM	–	> 100 µM	50.7 µM	65.9 µM	> 100 µM	> 100 µM	> 100 µM	38.3 µM	> 100 µM	–	–	–
CSC12c3cc(C)n(-c4ccc([N+](=O)[O-])cc4)c3CC(C)(C)CN1C(=O)C2Oc1ccccc1 (stereo not given)	> 100 µM	> 100 µM	> 100 µM	> 100 µM	> 100 µM	> 100 µM	> 100 µM	> 100 µM	> 100 µM	> 100 µM	–	> 100 µM	–	–	–
